The nature of this series: solvent given as SMILES.

`CCC12C(=C3C(=C4c5ccc(-c6ccccc6)cc5S(=O)(=O)C41CC)C(F)(F)C(F)(F)C3(F)F)c1ccc(-c3ccccc3)cc1S2(=O)=O` (stereo not drawn) came in with an absorption maximum (in C1COCCO1) of 456 nm.

As for `Cc1ccccc1C1=C2C=c3c(oc4c3ccc3ccccc34)=[N+]2[B-](F)(F)n2c1cc1c3ccc4ccccc4c3oc12`, the absorption maximum is 613 nm (in C1CCCCC1), 607 nm (in CCOC(C)=O) and 605.5 nm (in CO).

In turn, `C1=Cc2ccc(N(c3ccccc3)c3cccc4ccccc34)cc2C2(c3cc(N(c4ccccc4)c4cccc5ccccc45)ccc31)c1ccccc1-c1ccccc12` gave an absorption maximum (in ClCCl) of 403 nm.

In turn, `COc1ccc(-c2cccc3ncc(-c4ccccc4)n23)cc1` gave an absorption maximum (in ClCCl) of 332 nm.

Consider `F[B-]1(F)n2cccc2C(c2c3ccccc3cc3ccccc23)=C2C=CC=[N+]21`, for which the absorption maximum runs as follows: (in CC#N) 502 nm; (in CCCCCC) 505 nm; (in CCO) 503 nm; (in CN(C)C=O) 506 nm; (in Cc1ccccc1) 508 nm; (in ClCCl) 506 nm.

`O=P1(c2ccccc2)C(c2ccccc2)=Cc2cc3ccccc3cc21` (stereo not drawn) displayed an absorption maximum (in ClCCl) of 387 nm.

`CCCCCCCCCCCCCCCCCC(=O)Oc1cc2[nH]c(cc2CCOC)c2nc(ccc3[nH]c(cc3CCOC)c3nc1C(CCOC)=C3)C(CCOC)=C2` displayed an absorption maximum (in Cc1ccccc1) of 646 nm.

`C#CCOc1ccc(/C=C/C2=[N+]3C(=C(c4ccc(N5CCCCC5)cc4)c4c(C)cc(C)n4[B-]3(F)F)C(C)=C2)cc1`: the absorption maximum (in CO) worked out at 568 nm.

`COc1ccccc1-c1nc(-c2ccccc2)c2ccccn12`: the absorption maximum (in C1CCCCC1) is recorded as 303 nm; the absorption maximum (in CC#N) is on record as 374 nm; the absorption maximum (in CO) is on record as 298 nm; the absorption maximum (in ClCCl) is on record as 374 nm; the absorption maximum (in O) worked out at 330 nm.

The compound `CC(C)(C)c1ccc(-c2nc(-c3ccc(C(C)(C)C)cc3)nc(-c3cc(C#N)c(-n4c5ccccc5c5c6oc7ccccc7c6ccc54)c(C#N)c3)n2)cc1` registered an absorption maximum (in C1CCOC1) of 397.48 nm.

As to `O=c1[nH]c(=O)c2scc([C@H]3C[C@H](O)[C@@H](CO)O3)c2[nH]1`, the absorption maximum is, setting by setting: (in CC#N) 296 nm; (in CCOC(C)=O) 296 nm; (in CO) 294 nm; (in O) 294 nm.

For the compound `O=C1C=C(Nc2ccc([N+](=O)[O-])cc2[N+](=O)[O-])C(=O)c2ccccc21`, the absorption maximum (in CO) is reported as 437 nm.

With `Oc1ccccc1-c1nc(-c2ccccc2)c2ccccn12`, the absorption maximum reads like this: (in C1CCCCC1) 340 nm; (in CC#N) 343 nm; (in CO) 299 nm; (in ClCCl) 345 nm; (in O) 299 nm.

`CCCc1ccc2c(c1)cc1n2B2c3c4c-1cccc4cc1cccc(c31)-c1cc3cc(CCC)ccc3n12` gave an absorption maximum (in C1CCOC1) of 537 nm.

Turning to `CC[N+](CC)=c1ccc2nc3c(cc(NCCC(=O)NC(C)C(=O)OC)c4ccccc43)oc-2c1` (stereo not drawn), the absorption maximum runs as follows: (in CCO) 600 nm; (in O) 580 nm.

For the setting “in C1CCOC1”, `CCCCOc1c(-c2c(OCCCC)c3oc4cc5ccccc5cc4c3c3ccccc23)c2ccccc2c2c1oc1cc3ccccc3cc12` came in with an absorption maximum of 366 nm.

Take `CCN(CC)c1ccc(Nc2cc3oc(-c4ccc(C#N)cc4)nc3c3ccccc23)c(C)c1`: for the setting “in C1COCCO1”, the absorption maximum is 415 nm.

For the compound `CC(C)(C)c1ccc(/C=C/c2ccc(N(c3ccc(/C=C/c4ccc(C(C)(C)C)cc4)cc3)c3ccc(-c4nc5ccccc5nc4-c4ccc(N(c5ccc(/C=C/c6ccc(C(C)(C)C)cc6)cc5)c5ccc(/C=C/c6ccc(C(C)(C)C)cc6)cc5)cc4)cc3)cc2)cc1`, the absorption maximum by setting is: (in C1CCOC1) 375 nm; (in Cc1ccccc1) 373 nm.

Consider `CN(C)c1ccc(/C=C/c2cc[n+](Cc3cc(C[n+]4ccc(/C=C/c5ccc(N(C)C)cc5)cc4)cc(C[n+]4ccc(/C=C/c5ccc(N(C)C)cc5)cc4)c3)cc2)cc1`, for which the absorption maximum (in C1COCCO1) is 480 nm; the absorption maximum (in CC(C)O) is given as 490 nm; the absorption maximum (in CCCCCCCCO) was 489 nm; the absorption maximum (in CCCCO) stood at 491 nm; the absorption maximum (in CCCO) was found to be 495 nm; the absorption maximum (in CCO) came out at 498 nm. The absorption maximum worked out at 498 nm (in CO), 491 nm (in CS(C)=O), 500 nm (in ClC(Cl)Cl) and 500 nm (in ClCCl).

Take `CC(=O)Nc1ccc2c(c1)c(=O)c1cc(NC(C)=O)ccc1n2CCCCCC(=O)O`: the absorption maximum (in O) is reported as 430 nm.

`CCCCCCOc1cc(N(CC)CC)ccc1/C=C(\C#N)c1ccc(/C=C/C(=C(C#N)C#N)c2ccc(N(c3ccccc3)c3ccccc3)cc2)s1` showed an absorption maximum (in ClCCl) of 557 nm.

Turning to `CCOC(=O)CC[N+]1=c2cc3c(cc2CCC1)=Cc1c(c2ccc(N(C)C)cc2oc1=O)O3`, the absorption maximum (in CC#N) came out at 593 nm, the absorption maximum (in CO) was 591 nm, the absorption maximum (in ClCCl) is reported as 606 nm and the absorption maximum (in O) is recorded as 587 nm.

As to `CN1C(=CC2=C(O)C(=O)C2=C2C(=O)c3ccccc3C2=O)C(C)(C)c2ccccc21`, the absorption maximum (in CCO) is 492 nm.

With `COc1c2ccccc2c(OC)c2c(C#Cc3ccccc3)c3cc4ccccc4cc3c(C#Cc3ccccc3)c12`, where the note is “in ClCCl”, the absorption maximum is 704 nm.

Take `CN(C)CCNc1ccc([N+](=O)[O-])cc1[N+](=O)[O-]`: the absorption maximum is, setting by setting: (in C1CCCCC1) 334 nm; (in C1CCOC1) 352 nm; (in C1COCCO1) 348 nm; (in CC#N) 352 nm; (in CC(C)=O) 352 nm; (in CCCCCC) 330 nm. For the same compound, the absorption maximum by setting is: (in CCO) 348 nm; (in CCOC(C)=O) 347 nm; (in CN(C)C=O) 358 nm; (in CO) 350 nm; (in CS(C)=O) 363 nm; (in Cc1ccccc1) 347 nm. For the same compound, the absorption maximum (in ClC(Cl)Cl) is 350 nm and the absorption maximum (in ClCCl) was found to be 352 nm.

For `CC(C)(C)c1ccc2c(c1)c1cc(C(C)(C)C)ccc1n2-c1cccc(-c2nc(-c3cccc(-n4c5ccc(C(C)(C)C)cc5c5cc(C(C)(C)C)ccc54)c3)nc(-c3cccc(P(=O)(c4ccccc4)c4ccccc4)c3)n2)c1`, the absorption maximum is, setting by setting: (in C1CCOC1) 344.36 nm; (in CC#N) 344.36 nm; (in CC(C)=O) 344.36 nm; (in CN(C)C=O) 344.36 nm; (in Cc1ccccc1) 344.36 nm; (in ClC(Cl)Cl) 344.36 nm. Under “in ClCCl”, this compound returned an absorption maximum of 344.36 nm.

For `Cc1c2c(nc3ccccc13)-c1cc3c(cc1CC2)-c1nc2ccccc2c(C)c1CC3`, the absorption maximum (in ClC(Cl)Cl) is recorded as 372 nm.

Turning to `Cc1cc(N2c3ccccc3[Si](c3ccccc3)(c3ccccc3)c3ccccc32)c(C)cc1-c1nc(-c2ccccc2)nc(-c2ccccc2)n1`, for the setting “in Cc1ccccc1”, the absorption maximum is reported as 365.47 nm.

On to `COC(=O)c1cc(=O)n(C)c2cc(-c3ccc(N(C)C)cc3)sc12`, for which the absorption maximum is 428 nm (in CC#N) and 434 nm (in ClCCl).

`Cc1cc(-c2ccc(-c3ccccc3)cc2)cc(C)[o+]1`: where the note is “in ClCCl”, the absorption maximum was found to be 402 nm.

`CCCCC(CC)Cn1c2cc(C#N)ccc2c2ccc(C#Cc3ccc4ccc5cccc6ccc3c4c56)cc21` (stereo not drawn) came in with an absorption maximum (in ClCCl) of 410 nm.

The record behind these values is the Deep4Chem optical property database.
